The values below come from US7998989B2, “2-Imino-1,3-thiazoline-based compounds and T-type calcium channel inhibitors containing the same” (Korea Institute of Science and Technology, priority 2007, dated 2011).

For assay [1], the target named is T1, α1G T-type calcium channel (Homo sapiens, UniProt O43497).
T1 construct: host or cells: HEK293
The experiment in a line: Electrophysiological whole cell patch clamp measurement of T-type calcium channel current in HEK293 cells. Format: cell-based. The following applies: HEK293 cells expressing α1G; for HEK293cell (% Inhibition) 10 μM: inhibition of peak current; for IC50: read-out: IC50 (a1G). How it is done:
In the present invention, in order to examine an efficient inhibitor against the T-type calcium channel, a primary assay for T-type calcium channel inhibiting activity was conducted by a high-efficient assay using FDSS6000, wherein mammal HEK293 cell lines (originated from human kidney carcinoma cells) that specifically express α1G of the T-type calcium channel was used for primary assay. Through the primary assay, compounds that show meaningful inhibition effects were selected. The selected compounds were used in a second assay for T-type calcium channel inhibiting activity using an electrophysiological whole cell patch clamp method, wherein mammal HEK293 cell lines (originated from human kidney carcinoma cells) that specifically express α1G of the T-type calcium channel was used for the second assay. Mibefradil, which had been developed as a T-type calcium channel inhibitor, was used as a reference.
10% Fetal bovine serum (FBS) and 1% penicillin/streptomycin (v/v) were added to Dulbecco's modified Eagle's medium (DMEM), to be used as a media solution. The cells were cultured in an incubator under a wet condition of 95% air/5% CO2 and a temperature of 36.5° C. The media solution was refreshed every 3 or 4 days, and the cells were sub-cultured every week. Only the cells that expressed α1G T-type calcium channel were cultured using a G-418 (0.5 mg/ml) solution. The recording of the cells used in the T-type calcium channel activity analysis was conducted at 2-7 days after the cells were culturing on a cover slip coated with poly-L-lysine (0.5 mg/ml) when conducting every sub-culture. For analysis at a single cell level, the T-type calcium channel current was measured by an electrophysiological whole cell patch clamp method using EPC-9 amplifier (HEKA, German).
As solutions for analyzing T-type calcium channel activity, a solution including NaCl 140 mM, CaCl2 2 mM, and HEPES10 mM (pH 7.4, Sigma; 4-(2-hydroxyethyl)piperazine-1-ethanesulfonic acid) was used as an extracellular solution, and a solution including KCl 130 mM, HEPES 10 mM (Sigma), EGTA 11 mM (ethylene glycol-bis(2-aminoethylether)-N,N,N′,N′-tetraacetic acid, Sigma), and MgATP 5 mM (pH 7.4, Sigma) was used as an intracellular solution. The protocol for T-type calcium channel activity that is activated at low voltage is as follows. A micro-glass electrode with resistance of 3-4 MΩ wherein the above-prepared intracellular solution was filled was pricked into a single cell, to make a whole-cell recording mode. Thereafter, the cell membrane potential was fixed to −100 mV, and then the inward current due to the T-type calcium channel activity when hypopolarizing to −30 mV (50 ms duration) was measured every 10 seconds.
Each compound to be tested was dissolved in 100% dimethylsulfoxide (DMSO) to make a 10 mM stock solution. The effect of the compound on the T-type calcium channel current compound was initially examined in the stock solution with the 1000-times diluted concentration of 10 μM (containing 0.1% DMSO) and then examined in the solution with the concentration for IC50 measurement (mostly 0.1 to 100 μM), to obtain an IC50 value. More specifically, the cells were treated in each compound together with the extracellular solution for 30 to 60 seconds, and the inhibition level of peak current induced by the compound was calculated as a percentage, to obtain the % inhibition value as shown in Table 4.
(In general: The patch-clamp technique gives a direct electrical read-out from membranes.)

Assay [2] concerns the target T1, α1G T-type calcium channel. The experiment in a line: Assay for % inhibiting activity against T-type calcium channel using FDSS6000 (fluo-3 calcium imaging, KCl activation). Format: cell-based. The following applies: 10 μM; HEK293 cells stably expressing α1G T-type calcium channel and Kir2.1; compounds of the examples. Summed up: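 HEK293 cells stably expressing α1G and Kir2.1 loaded with 5 μM fluo-3/AM, then in HEPES buffer (pH 7.4) with 10 mM CaCl2. Compound applied 75 s before 75 mM KCl; intracellular Ca2+ read as […] area, % inhibition relative to untreated control.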

T1 sequence (O43497 whole entry): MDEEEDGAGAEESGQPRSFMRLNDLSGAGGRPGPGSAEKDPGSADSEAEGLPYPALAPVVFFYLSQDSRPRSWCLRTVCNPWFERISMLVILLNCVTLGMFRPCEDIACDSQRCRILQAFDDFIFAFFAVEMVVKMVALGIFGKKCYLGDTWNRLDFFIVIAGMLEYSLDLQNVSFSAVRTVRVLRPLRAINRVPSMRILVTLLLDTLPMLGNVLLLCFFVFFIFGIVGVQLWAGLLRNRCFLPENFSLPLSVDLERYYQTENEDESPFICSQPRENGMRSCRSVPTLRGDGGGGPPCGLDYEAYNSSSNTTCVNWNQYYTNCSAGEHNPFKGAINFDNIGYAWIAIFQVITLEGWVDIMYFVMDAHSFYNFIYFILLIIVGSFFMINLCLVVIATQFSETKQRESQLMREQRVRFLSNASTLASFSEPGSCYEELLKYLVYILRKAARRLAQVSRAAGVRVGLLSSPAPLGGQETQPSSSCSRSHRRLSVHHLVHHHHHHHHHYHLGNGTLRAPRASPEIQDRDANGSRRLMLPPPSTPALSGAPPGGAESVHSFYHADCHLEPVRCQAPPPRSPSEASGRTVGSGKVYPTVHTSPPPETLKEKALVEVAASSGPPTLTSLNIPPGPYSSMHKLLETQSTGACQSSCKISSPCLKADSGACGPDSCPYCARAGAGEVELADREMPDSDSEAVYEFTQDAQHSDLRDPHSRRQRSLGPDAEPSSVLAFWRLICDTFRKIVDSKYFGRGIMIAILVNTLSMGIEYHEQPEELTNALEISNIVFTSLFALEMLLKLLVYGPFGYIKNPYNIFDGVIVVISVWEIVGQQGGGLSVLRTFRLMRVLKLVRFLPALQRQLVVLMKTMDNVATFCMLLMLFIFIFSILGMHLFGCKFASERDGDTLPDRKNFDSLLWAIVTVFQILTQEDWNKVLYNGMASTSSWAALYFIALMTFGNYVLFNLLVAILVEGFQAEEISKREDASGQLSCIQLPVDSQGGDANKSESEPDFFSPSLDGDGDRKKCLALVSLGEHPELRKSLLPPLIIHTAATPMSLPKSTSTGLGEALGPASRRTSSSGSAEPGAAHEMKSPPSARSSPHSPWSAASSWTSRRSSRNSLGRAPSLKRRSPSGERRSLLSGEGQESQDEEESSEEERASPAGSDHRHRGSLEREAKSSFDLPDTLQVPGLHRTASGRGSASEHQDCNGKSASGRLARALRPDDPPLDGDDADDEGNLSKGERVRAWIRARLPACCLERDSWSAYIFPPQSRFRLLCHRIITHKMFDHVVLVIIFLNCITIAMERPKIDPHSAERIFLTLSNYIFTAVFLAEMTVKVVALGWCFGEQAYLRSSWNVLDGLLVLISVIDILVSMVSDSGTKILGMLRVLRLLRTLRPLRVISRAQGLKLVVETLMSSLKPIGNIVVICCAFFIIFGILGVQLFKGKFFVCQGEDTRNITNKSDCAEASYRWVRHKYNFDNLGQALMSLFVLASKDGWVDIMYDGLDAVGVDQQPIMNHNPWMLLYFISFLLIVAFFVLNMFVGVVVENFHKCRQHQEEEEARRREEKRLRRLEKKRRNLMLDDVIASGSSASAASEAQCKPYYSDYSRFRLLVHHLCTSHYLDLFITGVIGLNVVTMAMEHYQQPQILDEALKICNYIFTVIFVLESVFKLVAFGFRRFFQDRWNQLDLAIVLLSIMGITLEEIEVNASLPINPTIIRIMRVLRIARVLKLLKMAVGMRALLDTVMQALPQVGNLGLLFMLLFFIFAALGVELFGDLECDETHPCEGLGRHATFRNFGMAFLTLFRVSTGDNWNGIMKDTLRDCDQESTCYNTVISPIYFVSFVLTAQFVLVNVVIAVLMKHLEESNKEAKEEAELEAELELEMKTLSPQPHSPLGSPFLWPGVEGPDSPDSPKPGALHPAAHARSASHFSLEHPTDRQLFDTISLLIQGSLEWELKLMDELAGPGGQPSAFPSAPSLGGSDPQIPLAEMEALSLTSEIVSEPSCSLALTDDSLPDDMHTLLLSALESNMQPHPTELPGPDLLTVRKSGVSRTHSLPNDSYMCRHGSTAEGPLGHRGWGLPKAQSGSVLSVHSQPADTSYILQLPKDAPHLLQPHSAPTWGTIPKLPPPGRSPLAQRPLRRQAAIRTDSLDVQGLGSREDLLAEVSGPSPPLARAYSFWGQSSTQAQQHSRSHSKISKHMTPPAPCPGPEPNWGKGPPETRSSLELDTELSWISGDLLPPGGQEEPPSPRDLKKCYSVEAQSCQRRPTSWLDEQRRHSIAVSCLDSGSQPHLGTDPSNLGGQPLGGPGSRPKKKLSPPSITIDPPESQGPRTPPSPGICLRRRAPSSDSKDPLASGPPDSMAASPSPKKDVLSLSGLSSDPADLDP

A word on the IC50: it is the point on the concentration scale where inhibition reaches its midpoint. As for “(2-cycloheptylimino-3-methyl-1,3-thiazolidine-4-yl)-N-(2-chloro-4-fluorophenyl)-acetamide hydrochloride [KHG24120]”, in assay [1], the “HEK293cell (% Inhibition) 10 μM” value came out at 82.7 ± 0.9% and the concentration for half-maximal inhibition (IC50) turned out to be 2750 ± 250 nM. For the same substance, the “FDSS (% inhibition)/10uM” value in assay [2] is on record as 60.08%.
Taken in the same sequence, the figures for “(2-cycloheptylimino-3-methyl-1,3-thiazolidine-4-yl)-N-(2-fluoro-4-methylphenyl)-acetamide hydrochloride [KHG24126]” were 87.7 ± 0.6%, 1200 ± 80 nM and 53.79%.
On to “(2-cycloheptylimino-3-methyl-1,3-thiazolidine-4-yl)-N-(2-fluoro-5-nitrophenyl)-acetamide hydrochloride [KHG24129]”, for which, in assay [1], the “HEK293cell (% Inhibition) 10 μM” value was determined as 90.0 ± 0.4% and the IC50 was 1570 ± 110 nM. Moreover, in assay [2], the “FDSS (% inhibition)/10uM” value is 61.39%.
Taken in the same sequence, the figures for “(2-cycloheptylimino-3-methyl-1,3-thiazolidine-4-yl)-N-(4-bromophenyl)-acetamide hydrochloride [KHG24122]” were 94.6 ± 0.5%, 390 ± 30 nM and 71.12%.
Taken in the same sequence, the figures for “(2-cycloheptylimino-3-methyl-1,3-thiazolidine-4-yl)-N-(4-chloro-2-fluorophenyl)-acetamide hydrochloride [KHG24130]” were 90.0 ± 0.9%, 810 ± 80 nM and 70.4%.
For “(2-cycloheptylimino-3-methyl-1,3-thiazolidine-4-yl)-N-(4-chlorobenzyl)-acetamide hydrochloride [KHG24160]” the same measures were 92.9 ± 0.7%, 1330 ± 30 nM and 61.93%.
As to “(2-cycloheptylimino-3-methyl-1,3-thiazolidine-4-yl)-N-(4-chlorophenyl)-acetamide hydrochloride [KHG24131]”, in assay [1], the “HEK293cell (% Inhibition) 10 μM” value is recorded as 86.8 ± 0.3% and the concentration for half-maximal inhibition (IC50) was determined as 520 ± 20 nM. Further, the “FDSS (% inhibition)/10uM” value in assay [2] is reported as 72.86%.
On to “(2-cycloheptylimino-3-methyl-1,3-thiazolidine-4-yl)-N-(4-cyanomethylphenyl)-acetamide hydrochloride [KHG24121]”, for which, in assay [1], the “HEK293cell (% Inhibition) 10 μM” value is given as 58.1 ± 4.9% and the IC50 came to 8530 ± 1720 nM. Further, the “FDSS (% inhibition)/10uM” value in assay [2] was 41.02%.
For “(2-cycloheptylimino-3-methyl-1,3-thiazolidine-4-yl)-N-(4-ethylphenyl)-acetamide hydrochloride [KHG24117]” the same measures were 93.0 ± 2.5%, 570 ± 70 nM and 67.09%.
For the substance “(2-cycloheptylimino-3-methyl-1,3-thiazolidine-4-yl)-N-(4-fluorobenzyl)-acetamide hydrochloride [KHG24159]”, in assay [1], the “HEK293cell (% Inhibition) 10 μM” value was 76.8 ± 1.4% and the IC50 came to 3570 ± 290 nM. In assay [2], the “FDSS (% inhibition)/10uM” value is given as 48.52%.
Taken in the same sequence, the figures for “(2-cycloheptylimino-3-methyl-1,3-thiazolidine-4-yl)-N-(4-fluorophenyl)-acetamide hydrochloride [KHG24118]” were 80.3 ± 1.1%, 1880 ± 220 nM and 66%.
For “(2-cycloheptylimino-3-methyl-1,3-thiazolidine-4-yl)-N-(4-isopropylphenyl)-acetamide hydrochloride [KHG24133]” the same measures were 96.0 ± 1.9%, 420 ± 10 nM and 69.18%.
Taken in the same sequence, the figures for “(2-cycloheptylimino-3-methyl-1,3-thiazolidine-4-yl)-N-(4-methoxybenzyl)-acetamide hydrochloride [KHG24161]” were 81.2 ± 1.3%, 1670 ± 510 nM and 31.29%.
“(2-cycloheptylimino-3-methyl-1,3-thiazolidine-4-yl)-N-(4-methoxyphenyl)-acetamide hydrochloride [KHG24119]”: in assay [1], the “HEK293cell (% Inhibition) 10 μM” value was found to be 72.9 ± 1.0% and the IC50 worked out at 4440 ± 280 nM. In addition, the “FDSS (% inhibition)/10uM” value in assay [2] was 52.85%.
Taken in the same sequence, the figures for “(2-cycloheptylimino-3-methyl-1,3-thiazolidine-4-yl)-N-(4-methyl-2-chlorophenyl)-acetamide hydrochloride [KHG24124]” were 87.1 ± 1.2%, 1770 ± 100 nM and 59.49%.
For “(2-cycloheptylimino-3-methyl-1,3-thiazolidine-4-yl)-N-(4-n-butylphenyl)-acetamide hydrochloride [KHG24134]” the same measures were 95.1 ± 2.0%, 340 ± 30 nM and 75.92%.
Take “(2-cycloheptylimino-3-methyl-1,3-thiazolidine-4-yl)-N-(4-phenoxyphenyl)-acetamide hydrochloride [KHG24123]”: in assay [1], the “HEK293cell (% Inhibition) 10 μM” value is given as 94.2 ± 2.0% and the half-maximal inhibitory concentration (IC50) came out at 1090 ± 200 nM. Also, in assay [2], the “FDSS (% inhibition)/10uM” value was 76.6%.
Taken in the same sequence, the figures for “(2-cycloheptylimino-3-methyl-1,3-thiazolidine-4-yl)-N-(5-chloro-2-fluorophenyl)-acetamide hydrochloride [KHG24128]” were 88.1 ± 1.9%, 550 ± 10 nM and 62.56%.
Taken in the same sequence, the figures for “(2-cycloheptylimino-3-methyl-1,3-thiazolidine-4-yl)-N-phenyl-acetamide hydrochloride [KHG24132]” were 76.8 ± 1.0%, 5000 ± 1970 nM and 50.94%.
With “(2-cyclohexylimino-3-methyl-1,3-thiazolidine-4-yl)-N-(2-fluoro-5-nitrophenyl)-acetamide hydrochloride [KHG23360]”, in assay [1], the “HEK293cell (% Inhibition) 10 μM” value was found to be 87.8 ± 2.2% and the half-maximal inhibitory concentration (IC50) was found to be 780 ± 80 nM. The “FDSS (% inhibition)/10uM” value in assay [2] was determined as 66.64%.
For “(2-cyclohexylimino-3-methyl-1,3-thiazolidine-4-yl)-N-(2-trifluoromethylphenyl)-acetamide hydrochloride [KHG24083]” the same measures were 76.5 ± 2.3%, 3630 ± 540 nM and 47.92%.
Taken in the same sequence, the figures for “(2-cyclohexylimino-3-methyl-1,3-thiazolidine-4-yl)-N-(3,5-dichlorophenyl)-acetamide hydrochloride [KHG23356]” were 97.0 ± 0.7%, 230 ± 10 nM and 60.46%.
For “(2-cyclohexylimino-3-methyl-1,3-thiazolidine-4-yl)-N-(3,5-ditrifluoromethylphenyl)-acetamide hydrochloride [KHG24075]” the same measures were 94.1 ± 1.5%, 320 ± 20 nM and 73.72%.
On to “(2-cyclohexylimino-3-methyl-1,3-thiazolidine-4-yl)-N-(3-chloro-4-methylphenyl)-acetamide hydrochloride [KHG24072]”, for which, in assay [1], the “HEK293cell (% Inhibition) 10 μM” value is 91.2 ± 1.6% and the concentration for half-maximal inhibition (IC50) worked out at 990 ± 30 nM. Besides, the “FDSS (% inhibition)/10uM” value in assay [2] came to 63.5%.
